Test results reported in US20170368082A1, “FORMULATIONS OF BRINCIDOFOVIR” (priority 2016, published 2017).
Where two headings read alike, the source gives them in different places.

Legend:
[1] = Stability study I (with dextrose): accelerated stability study; assay type: physicochemical
Method: (§1) Testing of the chemical degradation was performed in an accelerated stability study setup applying heat as an accelerator/stressor. An Arrhenius analysis was carried out providing an API half-life and a degradation rate at lower temperatures. Physical stability was evaluated at the desired storage temperature (2-8° C.); a benchmark/reference condition was likewise included in the study. The setup of the study is specified below:
Accelerated stability study: 50° C., 60° C., 65° C., 70° C., 75° C.,
Accelerated stability study: initial, 2, 6, 9, 14 days,
(§2) appearance, pH, c(BCV) recovery (HPLC), purity (HPLC), and liquid particle counting (physical degradation and benchmark stability study),
The stability testing results (accelerated conditions), i.e., the changes of pH and trends of brincidofovir recovery over the course of the stability study are summarized in Table 8 and Table 9 for the formulations at 10 mg/mL and 15 mg/mL respectively.

[2] = 28-day study toxicokinetics of brincidofovir and CDV in plasma; assay type: in vivo, Sprague-Dawley CD rats; conditions: plasma brincidofovir; for AUC(0-t) / Cmax: iv
Method: Blood samples were obtained for the determination of plasma concentrations of brincidofovir and the brincidofovir metabolite, cidofovir.
Approximately 0.40 mL of whole blood was obtained via the tail vein from each animal at each time point. Animals were not fasted prior to blood collection. Blood was collected into tubes containing K2EDTA anticoagulant and placed on wet ice in an upright position. Plasma was separated by centrifugation (for 10 minutes at approximately 2000 g, at approximately 2-8° C.). Approximately 0.150 mL of plasma was transferred into a single cryotube appropriately labeled as to study number, animal number, time point, date of sampling and sample type. Remaining plasma was transferred into a second cryotube and retained as a backup sample. Plasma was obtained and frozen at approximately −80±10° C. within approximately 2 hours after collection of each blood sample until analysis. Animals were euthanized (CO2 inhalation) after the final blood collection.
Bioanalytical samples were analyzed using a validated liquid chromatographic-triple quadruple mass spectrometric (LC-MS/MS) assay at Pyxant Labs.
Upon receipt of the plasma concentration data, noncompartmental toxicokinetic analysis was performed by Nuventra, Inc. Durham, N.C.

[3] = Stability study I: physical degradation and benchmark stability study; assay type: physicochemical
Method: as §1
Physical degradation and benchmark stability study: 2-8° C., 25° C.
Physical degradation and benchmark stability study: initial, 14 and 28 days,
as §2
The results of the physical/benchmark stability for both tested formulations are summarized in Table 11 and Table 12, respectively. The purities of the formulations at different temperatures were determined by comparing chromatograms obtained at different temperatures and time points during the study.

[4] = IV BCV single ascending dose study: plasma BCV and CDV PK; assay type: in vivo, human; conditions: for Tmax / clearance / half-life / AUC(0-inf) / Cmax / Vd: human; for Tmax: intravenous; for clearance / half-life / AUC(0-inf) / Cmax / Vd: plasma; for Vd: read-out: Vss
Method: Plasma PK samples were collected over 7 days and assayed by HPLC-MS. Plasma BCV PK parameters were determined by non-compartmental analysis and dose proportionality was assessed. Safety assessments were collected over 14 days.

[5] = pH stability of brincidofovir stock solutions (50 μg/mL, 50 mM phosphate pH 6.0-8.0, 20% methanol); assay type: physicochemical
Method: Brincidofovir sample stock solutions (50 μg/mL) were prepared in 50 mM phosphate buffer at pH 6.0-8.0 containing 20% methanol. The samples were aliquoted and stored at two temperatures (T=2-8° C. and T=40° C.), and monitored for pH and recovery of brincidofovir at multiple time points over the course of two weeks. Under both conditions, the samples maintained the pH level throughout the time course of the experiment.
The decrease may be related to the observed precipitation. Variation for pH 7.0 is observed for t>8 days. One impurity (RT=4.7 min) was detected that exceeded the set total peak area threshold that was applied for peak integration. The percent of the total peak area was below 0.4% for samples at pH 6 and 6.5, and below 0.1% for samples at higher pH.
For the samples at lower pH, a peak associated with the deamination product of brincidofovir, was observed, encompassing an area % of 1.91 at pH 6.0, and 0.58 at pH 6.5. The degradants peak is not observed at neutral pH and above.

[6] = both sexes, Sprague-Dawley CD, rat, in vivo, 4 mg/kg, Day 1, 4 mg/kg, combined male and female, Mean
[7] = both sexes, Sprague-Dawley CD, rat, in vivo, 4 mg/kg, Day 1, 4 mg/kg, combined male and female, Median
[8] = both sexes, Sprague-Dawley CD, rat, in vivo, 15 mg/kg, Day 1, 15 mg/kg, combined male and female, Mean
[9] = both sexes, Sprague-Dawley CD, rat, in vivo, 15 mg/kg, Day 1, 15 mg/kg, combined male and female, Median
[10] = Day 29, 1 mg/kg, combined male and female rats, mean
[11] = Day 29, 4 mg/kg, combined male and female rats, mean
[12] = Day 29, 15 mg/kg, combined male and female rats, mean
[13] = Day 1, 1 mg/kg, combined male and female, Median
[14] = Day 1, 4 mg/kg, combined male and female, Mean
[15] = Day 1, 4 mg/kg, combined male and female, Median
[16] = Day 1, 15 mg/kg, combined male and female, Mean
[17] = Day 1, 15 mg/kg, combined male and female, Median
[18] = iv, 10 mg, plasma BCV, Cohort 1, BCV 10 mg 2 h IV infusion, n = 6
[19] = iv, 25 mg, plasma BCV, Cohort 2, BCV 25 mg 2 h IV infusion, n = 6
[20] = iv, 50 mg, plasma BCV, Cohort 3, BCV 50 mg 2 h IV infusion, n = 9
[21] = iv, 50 mg, plasma BCV, Cohort 4, BCV 50 mg 4 h IV infusion, n = 9

## CCCCCCCCCCCCCCCCOCCCOP(=O)(O)CO[C@H](CO)Cn1ccc(N)nc1=O [Brincidofovir]
[1]; 50 °C
  Degradation of brincidofovir over two weeks: 16%
[1]; 75 °C
  Degradation of brincidofovir over two weeks: 22%
[1]; 75 °C station, both starting concentrations
  Impurities: up to 16%
[2]; both sexes, Sprague-Dawley CD, rat, in vivo, 1 mg/kg, Day 1, 1 mg/kg, combined male and female, Mean, read-out: Clast
  concentration at 2 h: 209 ng/mL
[2]; both sexes, Sprague-Dawley CD, rat, in vivo, 4 mg/kg, Day 29, 4 mg/kg, combined male and female rats, mean, read-out: Clast
  concentration at 8 hr: 2.06 ng/mL
[2]; both sexes, Sprague-Dawley CD, rat, in vivo, 4 mg/kg, Day 1, 4 mg/kg, combined male and female, Mean, read-out: Clast
  concentration at 8 h: 2.2 ng/mL
[2]; both sexes, Sprague-Dawley CD, rat, in vivo, 4 mg/kg, Day 1, 4 mg/kg, combined male and female, Median, read-out: Clast
  concentration at 8 h: 2.31 ng/mL
[2]; both sexes, Sprague-Dawley CD, rat, in vivo, 15 mg/kg, Day 29, 15 mg/kg, combined male and female rats, mean, read-out: Clast
  concentration at 8 hr: 10.9 ng/mL
[2]; both sexes, Sprague-Dawley CD, rat, in vivo, 15 mg/kg, Day 1, 15 mg/kg, combined male and female, Mean, read-out: Clast
  concentration at 8 h: 9.68 ng/mL
[2]; both sexes, Sprague-Dawley CD, rat, in vivo, 15 mg/kg, Day 1, 15 mg/kg, combined male and female, Median, read-out: Clast
  concentration at 8 h: 10.3 ng/mL
[2]; both sexes, Sprague-Dawley CD, rat, in vivo, 1 mg/kg, Day 29, 1 mg/kg, combined male and female rats, mean, calculated using only 2 quantifiable data points
  AUC(0-t): 410 ng·h/mL
[2]; both sexes, Sprague-Dawley CD, rat, in vivo, 1 mg/kg, Day 1, 1 mg/kg, combined male and female, Mean
  Cmax: 219 ng/mL
[2]; both sexes, Sprague-Dawley CD, rat, in vivo, 1 mg/kg, Day 1, 1 mg/kg, combined male and female, Mean, only 2 quantifiable data points
  AUC(0-t): 319 ng·h/mL
[2]; both sexes, Sprague-Dawley CD, rat, in vivo, 1 mg/kg, Day 1, 1 mg/kg, combined male and female, Median
  Cmax: 210 ng/mL
[2]; both sexes, Sprague-Dawley CD, rat, in vivo, 1 mg/kg, Day 1, 1 mg/kg, combined male and female, Median, only 2 quantifiable data points
  AUC(0-t): 305 ng·h/mL
[2]; both sexes, Sprague-Dawley CD, rat, in vivo, 4 mg/kg, Day 29, 4 mg/kg, combined male and female rats, mean
  AUC(0-t): 2760 ng·h/mL
[2]; [6]
  AUC(0-t): 2220 ng·h/mL
  Cmax: 1010 ng/mL
[2]; [7]
  AUC(0-t): 2320 ng·h/mL
  Cmax: 1000 ng/mL
[2]; both sexes, Sprague-Dawley CD, rat, in vivo, 15 mg/kg, Day 29, 15 mg/kg, combined male and female rats, mean
  AUC(0-t): 9890 ng·h/mL
[2]; [8]
  AUC(0-t): 8820 ng·h/mL
  Cmax: 3800 ng/mL
[2]; [9]
  AUC(0-t): 8780 ng·h/mL
  Cmax: 3760 ng/mL
[2]; [10]
  AUClast/Dose: 410 (hr*ng/mL)/(mg/kg)
  Cmax/Dose: 298 kg·ng/mL/mg
[2]; Day 29, 1 mg/kg, combined male and female rats, median
  Tlast: 2.00 h
[2]; [11]
  AUClast/Dose: 690 (hr*ng/mL)/(mg/kg)
  Cmax/Dose: 301 kg·ng/mL/mg
[2]; Day 29, 4 mg/kg, combined male and female rats, median
  Tlast: 8.00 h
[2]; [12]
  AUClast/Dose: 660 (hr*ng/mL)/(mg/kg)
  Cmax/Dose: 300 kg·ng/mL/mg
[2]; Day 29, 15 mg/kg, combined male and female rats, median
  Tlast: 8.00 h
[2]; Day 1, 1 mg/kg, combined male and female, Mean
  Cmax/Dose: 219 kg·ng/mL/mg
[2]; Day 1, 1 mg/kg, combined male and female, Mean, only 2 quantifiable data points
  AUClast/Dose: 319 (hr*ng/mL)/(mg/kg)
[2]; [13]
  Clast: 206 ng/mL
  Cmax/Dose: 210 kg·ng/mL/mg
  Tlast: 2.00 h
[2]; Day 1, 1 mg/kg, combined male and female, Median, only 2 quantifiable data points
  AUClast/Dose: 305 (hr*ng/mL)/(mg/kg)
[2]; [14]
  AUClast/Dose: 554 (hr*ng/mL)/(mg/kg)
  Cmax/Dose: 252 kg·ng/mL/mg
[2]; [15]
  AUClast/Dose: 579 (hr*ng/mL)/(mg/kg)
  Cmax/Dose: 250 kg·ng/mL/mg
  Tlast: 8.00 h
[2]; [16]
  AUClast/Dose: 588 (hr*ng/mL)/(mg/kg)
  Cmax/Dose: 254 kg·ng/mL/mg
[2]; [17]
  AUClast/Dose: 585 (hr*ng/mL)/(mg/kg)
  Cmax/Dose: 251 kg·ng/mL/mg
  Tlast: 8.00 h
[3]; 2-8 °C
  Degradation over one month: 6%
[3]; 25 °C
  Degradation over one month: 8%
[3]; over one month
  Purity of brincidofovir: 99%
[4]; BCV IV 50 mg
  Geometric mean plasma BCV AUC∞ relative to oral 100 mg tablets: 4.5 fold
[4]; IV single ascending dose
  Plasma BCV Cmax and AUCs vs dose: increased in proportion to dose
[4]; 50 mg, plasma BCV, 4-hour infusion (Cohort 4)
  Tmax: 2.5 to 4 h
[4]; plasma BCV, Cohorts 1-3 (2-hour infusion)
  Tmax: 2 h
[4]; [18]
  clearance: 127 mL/min
  half-life: 3.42 h
  Vd: 16.4 L
[4]; iv, 10 mg, plasma BCV, Cohort 1, BCV 10 mg 2 h IV infusion, n = 6, geometric mean, read-out: AUC∞
  AUC(0-inf): 1310 ng·h/mL
[4]; iv, 10 mg, plasma BCV, Cohort 1, BCV 10 mg 2 h IV infusion, n = 6, geometric mean, read-out: Cmax
  Cmax: 613 ng/mL
[4]; [19]
  clearance: 144 mL/min
  half-life: 5.89 h
  Vd: 19.8 L
[4]; iv, 25 mg, plasma BCV, Cohort 2, BCV 25 mg 2 h IV infusion, n = 6, geometric mean, read-out: AUC∞
  AUC(0-inf): 2890 ng·h/mL
[4]; iv, 25 mg, plasma BCV, Cohort 2, BCV 25 mg 2 h IV infusion, n = 6, geometric mean, read-out: Cmax
  Cmax: 1410 ng/mL
[4]; [20]
  clearance: 140 mL/min
  half-life: 6.54 h
  Vd: 19.5 L
[4]; iv, 50 mg, plasma BCV, Cohort 3, BCV 50 mg 2 h IV infusion, n = 9, geometric mean, read-out: AUC∞
  AUC(0-inf): 5950 ng·h/mL
[4]; iv, 50 mg, plasma BCV, Cohort 3, BCV 50 mg 2 h IV infusion, n = 9, geometric mean, read-out: Cmax
  Cmax: 2950 ng/mL
[4]; [21]
  clearance: 127 mL/min
  half-life: 5.1 h
  Vd: 10.8 L
[4]; iv, 50 mg, plasma BCV, Cohort 4, BCV 50 mg 4 h IV infusion, n = 9, geometric mean, read-out: AUC∞
  AUC(0-inf): 6570 ng·h/mL
[4]; iv, 50 mg, plasma BCV, Cohort 4, BCV 50 mg 4 h IV infusion, n = 9, geometric mean, read-out: Cmax
  Cmax: 1590 ng/mL
[4]; po, 100 mg, BCV oral 100 mg tablets, read-out: Plasma BCV AUC∞
  AUC(0-inf): 1390 ng·h/mL
[4]; po, 100 mg, BCV oral 100 mg tablets, read-out: Plasma BCV Cmax
  Cmax: 251 ng/mL
[5]; 2-8 °C, higher pH
  Impurity (RT=4.7 min), percent of total peak area: below 0.1%
[5]; 2-8 °C, pH 6.0
  Time at which precipitation was observed: 2 days
[5]; 2-8 °C, pH 6 and 6.5
  Impurity (RT=4.7 min), percent of total peak area: below 0.4%
[5]; 2-8 °C, pH 6.5
  Time at which precipitation was observed: 2 days
[5]; 2-8 °C, pH 7.0
  Time at which precipitation was observed: 4 days
[5]; 2-8 °C, pH 7.5 and pH 8.0, two weeks
  Appearance: no observable change in appearance
[5]; 40 °C, any pH
  Appearance: no physical change in appearance
[5]; 40 °C, pH 6.0
  Deamination product peak area %: 1.91%
[5]; 40 °C, pH 6.5
  Deamination product peak area %: 0.58%
